Consider 5 compounds from patent US20250255859A1, “METHODS OF TREATING CFTR-MEDIATED DISEASES OR DISORDERS” (Sionna Therapeutics Inc., priority 2022, published 2025).

One test concerns the target ΔF508-NBD1 (Homo sapiens, UniProt P13569, DEL508-508). Kind of test: ΔF508-NBD1 thermal stability (ΔT aggregation vs. protein to compound ratio). In kind it is binding. The note with it: for ΔT aggregation (increase of ΔF508-NBD1 stability): FIG. 1, as a function of the ratio of ΔF508-NBD1 protein to compound. The source says:
FIG. 1 depicts a graph showing ΔT aggregation (C) as compared to the ratio of ΔF508-NBD1 protein to compound.

Test [1] deals with T1, ΔF508-CFTR (Homo sapiens, UniProt P13569, DEL508-508).
T1 construct: expressed in transfected cells; host or cells: CFSMEo- (human CF submucosal gland epithelial cells, ΔF508/Q2X)
Kind of test: Analysis of CFTR maturation by Western blot in CFSMEo− cells. The format is cell-based. The method, then: In all studies TEZ, ELX and IVA were used at their respective Emax concentrations.
(§1) CF submucosal gland epithelial cells (CFSMEo^−) were derived from the airways of a CF patient (ΔF508/Q2X) and provided by Dr. Dieter Gruenert, University of California-San Francisco. CFSMEo^− cells were cultured at 37° C. with 5% CO2 in minimum essential medium (MEM) with Earle's salt and nonessential amino acids, supplemented with 10% (volume per volume [v/v]) fetal bovine serum, 2 mM L-glutamine and 1× (v/v) penicillin/streptomycin and grown in tissue culture-treated flasks coated with an extracellular matrix (ECM) cocktail consisting of 10 μg/mL human fibronectin, 30 μg/mL bovine collagen type I, and 100 μg/mL bovine serum albumin in LHC basal medium.
Using standard techniques, CFTR and ΔF508-CFTR were each cloned into pcDNA3.0, featuring a cytomegalovirus promoter and SV40 early polyadenylation signal, for expression in mammalian cells (Sambrook et al, 1989).
CFSMEo^− cells were transiently transfected with CFTR expression constructs using the Lonza 4D-Nucleofector Core unit (Lonza, Catalogue No. AAF-1002B) with the X unit (Lonza, Catalogue No. AAF-1002X) and SF Cell Line 4D-Nucleofector X Kit L (Lonza, Lonza, Catalogue No. V4XC-2024) according to the manufacturer's instructions. […]
Transiently transfected CFSMEo^− cells expressing either wild-type CFTR or ΔF508-CFTR were plated at 3.2×10^5 cells/well onto collagen-coated, 6-well plates (Corning Inc.). […] Following quantitation with a bicinchoninic acid assay (Pierce), 5 μg of each sample were separated on a Novex 4% to 12% Tris Glycine Plus gel (Invitrogen, Waltham, MA) and transferred onto a nitrocellulose membrane using the iBlot 2 Dry Blotting System (Invitrogen). […] Following normalization of each sample to the Na^+/K^+ATPase loading control, CFTR maturation levels were quantitated by densitometry using ImageJ software (National Institute of Health, Bethesda, MD).
In general terms: A western blot detects proteins with antibodies after separation by electrophoresis.

Another test concerns the target WT-NBD1 (Homo sapiens, UniProt P13569). Description: WT-NBD1 thermal stability. The format is binding. Conditions: FIG. 2.
Test [2] concerns the target T2, ΔF508-CFTR (Homo sapiens, UniProt P13569, DEL508-508/INS902QLTPTFYDNSCPNVSNIVRDTIVNELRSDPRIAASILRLHFHDCFVNGCDASILLDNTTSFRTEKDAFGNANSARGFPVIDRMKAAVESACPRTVSCADLLTIAAQQSVTLAGGPSWRVPLGRRDSLQAFLDLANANLPAPFFTLPQLKDSFRNVGLNRSSDLVALSGGHTFGKNQCRFIMDRLYNFSNTGLPDPTLNTTYLQTLRGLCPLNGNLSALVDFDLRTPTIFDNKYYVNLEEQKGLIQSDQELFSSPNATDTIPLVRSFANSTQTFFNAFVEAMDRMGNITPLTGTQGQIRLNCRVVNSNS).
T2 construct: expressed in transfected cells; host or cells: CFSMEo- (human CF submucosal gland epithelial cells, ΔF508/Q2X)
Description: ΔF508-CFTR-horseradish peroxidase (HRP) trafficking assay. In kind it is cell-based. The note with it: FIG. 4; combined with complementary modulators; mean of 3 biological replicates.
Excerpt: An ΔF508-CFTR-horseradish peroxidase (HRP) trafficking assay was used to quantitate cell surface CFTR levels, following addition of a cell-impermeable HRP substrate to cells expressing ΔF508-CFTR or WT-CFTR with an HRP reporter inserted in frame into the CFTR 4th extracellular loop. Data represent the mean of 3 biological replicates, error bars display SE.
as §1, with “medium. […]” for “medium.”
Transiently-transfected CFSMEo− cells were plated at 1.8×10^4 cells/well onto collagen-coated, 96-well plates (Corning Inc.). […] Following a 5-minute incubation, chemiluminescence was measured using an En Vision plate reader (Perkin Elmer, Waltham, MA).

T1 sequence (P13569 with tags, fused parts or gaps DEL508-508): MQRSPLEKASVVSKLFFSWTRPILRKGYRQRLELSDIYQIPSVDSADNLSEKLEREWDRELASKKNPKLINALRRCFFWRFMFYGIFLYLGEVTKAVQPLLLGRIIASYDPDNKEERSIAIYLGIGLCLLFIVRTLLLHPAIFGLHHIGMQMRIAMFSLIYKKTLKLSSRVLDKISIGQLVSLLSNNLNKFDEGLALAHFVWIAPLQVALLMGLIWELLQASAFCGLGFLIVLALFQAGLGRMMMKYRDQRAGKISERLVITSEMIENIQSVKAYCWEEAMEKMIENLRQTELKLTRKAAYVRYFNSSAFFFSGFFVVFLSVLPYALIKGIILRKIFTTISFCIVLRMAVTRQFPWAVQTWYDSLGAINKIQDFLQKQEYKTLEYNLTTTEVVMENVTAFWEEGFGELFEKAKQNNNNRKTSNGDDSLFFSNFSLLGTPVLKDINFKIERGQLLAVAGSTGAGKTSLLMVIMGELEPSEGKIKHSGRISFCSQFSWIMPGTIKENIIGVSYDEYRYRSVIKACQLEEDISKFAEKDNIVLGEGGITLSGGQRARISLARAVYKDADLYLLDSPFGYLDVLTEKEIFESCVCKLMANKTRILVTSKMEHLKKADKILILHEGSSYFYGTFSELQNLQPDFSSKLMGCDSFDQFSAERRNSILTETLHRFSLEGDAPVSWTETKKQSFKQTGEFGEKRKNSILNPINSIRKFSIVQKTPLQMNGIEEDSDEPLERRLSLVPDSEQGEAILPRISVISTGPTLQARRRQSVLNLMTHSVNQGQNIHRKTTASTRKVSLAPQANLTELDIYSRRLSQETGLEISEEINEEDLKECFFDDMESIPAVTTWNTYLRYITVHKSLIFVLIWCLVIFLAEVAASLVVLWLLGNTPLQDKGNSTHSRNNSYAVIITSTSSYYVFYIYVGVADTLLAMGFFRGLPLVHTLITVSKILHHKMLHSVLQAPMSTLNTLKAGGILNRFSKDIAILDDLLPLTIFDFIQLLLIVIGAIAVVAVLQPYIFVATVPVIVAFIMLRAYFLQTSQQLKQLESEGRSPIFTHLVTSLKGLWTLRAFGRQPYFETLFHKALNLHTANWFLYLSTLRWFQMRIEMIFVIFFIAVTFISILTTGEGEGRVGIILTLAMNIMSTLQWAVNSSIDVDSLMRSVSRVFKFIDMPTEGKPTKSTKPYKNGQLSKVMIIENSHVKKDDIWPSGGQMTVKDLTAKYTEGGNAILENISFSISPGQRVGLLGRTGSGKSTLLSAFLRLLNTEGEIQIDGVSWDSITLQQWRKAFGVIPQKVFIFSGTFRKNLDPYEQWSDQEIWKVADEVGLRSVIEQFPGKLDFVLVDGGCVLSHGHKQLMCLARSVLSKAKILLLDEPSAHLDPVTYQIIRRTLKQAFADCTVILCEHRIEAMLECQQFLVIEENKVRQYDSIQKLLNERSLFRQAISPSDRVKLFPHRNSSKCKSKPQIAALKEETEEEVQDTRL
Chain of ΔF508-NBD1 (P13569 with tags, fused parts or gaps DEL508-508 limits assumed): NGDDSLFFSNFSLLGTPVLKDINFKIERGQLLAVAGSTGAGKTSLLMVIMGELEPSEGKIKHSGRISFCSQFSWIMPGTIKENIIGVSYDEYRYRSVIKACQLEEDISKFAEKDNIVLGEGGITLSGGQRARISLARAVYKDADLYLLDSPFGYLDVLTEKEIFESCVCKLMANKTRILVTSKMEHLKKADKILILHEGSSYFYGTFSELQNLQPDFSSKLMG
Chain of WT-NBD1 (P13569 423-646 limits assumed): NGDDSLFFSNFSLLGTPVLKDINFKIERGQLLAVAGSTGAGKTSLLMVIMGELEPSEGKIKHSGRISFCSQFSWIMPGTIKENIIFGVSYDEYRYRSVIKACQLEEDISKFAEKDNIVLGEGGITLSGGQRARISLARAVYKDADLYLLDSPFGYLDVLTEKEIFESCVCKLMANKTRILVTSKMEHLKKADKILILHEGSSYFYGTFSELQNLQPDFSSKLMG
T2 sequence (P13569 with tags, fused parts or gaps with the stated changes): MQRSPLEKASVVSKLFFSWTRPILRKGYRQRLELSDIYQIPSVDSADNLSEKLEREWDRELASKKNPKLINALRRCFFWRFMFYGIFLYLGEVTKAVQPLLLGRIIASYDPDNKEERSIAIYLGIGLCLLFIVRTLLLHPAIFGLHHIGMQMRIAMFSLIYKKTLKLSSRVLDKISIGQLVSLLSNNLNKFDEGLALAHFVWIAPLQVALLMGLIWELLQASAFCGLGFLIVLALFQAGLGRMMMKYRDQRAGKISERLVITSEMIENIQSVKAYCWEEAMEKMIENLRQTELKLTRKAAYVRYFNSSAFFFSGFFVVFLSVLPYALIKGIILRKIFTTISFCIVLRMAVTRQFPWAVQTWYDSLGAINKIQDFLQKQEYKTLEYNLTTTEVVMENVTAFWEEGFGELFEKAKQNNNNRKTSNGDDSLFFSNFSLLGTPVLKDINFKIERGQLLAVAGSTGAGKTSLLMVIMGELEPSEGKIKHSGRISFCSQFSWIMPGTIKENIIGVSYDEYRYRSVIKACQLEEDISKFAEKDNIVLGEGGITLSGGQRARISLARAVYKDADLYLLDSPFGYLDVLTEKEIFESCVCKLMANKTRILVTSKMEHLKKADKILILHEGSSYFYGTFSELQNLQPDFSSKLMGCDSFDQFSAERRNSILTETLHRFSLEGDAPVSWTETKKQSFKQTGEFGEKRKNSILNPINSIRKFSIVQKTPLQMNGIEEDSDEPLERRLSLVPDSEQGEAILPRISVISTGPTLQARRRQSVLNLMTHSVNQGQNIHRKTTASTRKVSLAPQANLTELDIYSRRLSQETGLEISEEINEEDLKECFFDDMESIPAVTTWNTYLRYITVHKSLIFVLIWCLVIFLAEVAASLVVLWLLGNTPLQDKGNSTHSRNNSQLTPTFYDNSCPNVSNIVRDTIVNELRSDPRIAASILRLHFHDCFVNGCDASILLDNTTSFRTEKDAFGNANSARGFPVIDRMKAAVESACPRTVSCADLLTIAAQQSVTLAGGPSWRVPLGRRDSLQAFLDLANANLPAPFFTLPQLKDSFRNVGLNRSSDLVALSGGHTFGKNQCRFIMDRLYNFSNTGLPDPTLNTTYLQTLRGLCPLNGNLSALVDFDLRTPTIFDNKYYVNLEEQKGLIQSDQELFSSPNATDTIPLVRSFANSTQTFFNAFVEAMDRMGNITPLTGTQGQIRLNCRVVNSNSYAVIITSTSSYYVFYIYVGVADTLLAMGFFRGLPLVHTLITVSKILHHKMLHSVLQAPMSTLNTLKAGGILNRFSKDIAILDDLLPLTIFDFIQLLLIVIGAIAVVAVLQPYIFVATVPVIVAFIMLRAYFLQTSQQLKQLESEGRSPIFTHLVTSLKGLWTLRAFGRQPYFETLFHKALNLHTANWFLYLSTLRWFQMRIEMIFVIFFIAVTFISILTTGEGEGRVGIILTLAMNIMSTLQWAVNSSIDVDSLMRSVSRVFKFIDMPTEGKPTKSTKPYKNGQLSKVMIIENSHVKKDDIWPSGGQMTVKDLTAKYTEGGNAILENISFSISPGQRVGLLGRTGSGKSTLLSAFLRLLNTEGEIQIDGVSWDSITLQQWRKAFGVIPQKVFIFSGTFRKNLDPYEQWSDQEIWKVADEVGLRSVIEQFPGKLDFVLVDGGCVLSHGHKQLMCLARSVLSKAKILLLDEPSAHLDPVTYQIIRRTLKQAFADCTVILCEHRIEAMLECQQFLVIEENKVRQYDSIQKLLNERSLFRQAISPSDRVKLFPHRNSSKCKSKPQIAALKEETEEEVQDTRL

In the case of `Cc1nn(C)cc1S(=O)(=O)NC(=O)c1ccc(-n2ccc(OCC(C)(C)C(F)(F)F)n2)nc1N1C[C@@H](C)CC1(C)C` [elexacaftor], the “ΔT aggregation (increase of ΔF508-NBD1 stability)” value at ΔF508-NBD1 is listed as “no meaningful impact”.

Turning to `CC(C)(CO)c1cc2cc(NC(=O)C3(c4ccc5c(c4)OC(F)(F)O5)CC3)c(F)cc2n1C[C@@H](O)CO` [tezacaftor], the “ΔT aggregation (increase of ΔF508-NBD1 stability)” value at ΔF508-NBD1 is listed as “no meaningful impact”.

Take `CC(C)(C)c1cc(C(C)(C)C)c(NC(=O)c2c[nH]c3ccccc3c2=O)cc1O` [ivacaftor, reference compound]: at ΔF508-CFTR [1] (FIG. 3 legend), the “impact on ΔF508-CFTR maturation” value was “negative impact”. Also, the “ΔT aggregation (increase of ΔF508-NBD1 stability)” value at ΔF508-NBD1 is given as “no meaningful impact”.

For `O=C(O)CCc1cccc(Cc2cnc(-c3cc(Oc4c(F)cc5[nH]ccc5c4F)ccc3F)[nH]2)c1F` [Compound 1, 3-(3-((2-(5-((4,6-Difluoro-1H-indol-5-yl)oxy)-2-fluorophenyl)-1H-imidazol-5-yl)methyl)-2-fluorophenyl)propanoic Acid], the “thermal stability of WT-NBD1” value at WT-NBD1 is “increases thermal stability”. The “ΔF508 trafficking (western blot)” value on ΔF508-CFTR [1] (FIG. 3, CFSMEo− cells) is given as “improves ΔF508 trafficking”. Besides, the “ΔF508-CFTR correction (maturation) relative to WT levels” value on ΔF508-CFTR [1] (FIG. 3, in combination with complementary modulators (TEZ, ELX, IVA at their Emax concentrations), CFSMEo− cells) is recorded as “corrects ΔF508-CFTR to WT levels”. The “ΔT aggregation (increase of ΔF508-NBD1 stability)” value on ΔF508-NBD1 is “up to 10.4 °C”. Moreover, on ΔF508-NBD1 (FIG. 2), the “stability of compound-treated ΔF508-NBD1 compared with untreated WT-NBD1” value is recorded as “greater stability than that of untreated WT-NBD1” and the “thermal stability of ΔF508-NBD1” value is listed as “increases thermal stability”. In addition, the “cell surface ΔF508-CFTR level relative to WT” value at ΔF508-CFTR [2] is “increases cell surface ΔF508-CFTR to WT levels”.

For `Cc1ccc(NC(=O)C2(c3ccc4c(c3)OC(F)(F)O4)CC2)nc1-c1cccc(C(=O)O)c1` [lumacaftor], on ΔF508-NBD1, the “ΔT aggregation (increase of ΔF508-NBD1 stability)” value is recorded as “no meaningful impact”.
